The record followed here is US7998989B2, “2-Imino-1,3-thiazoline-based compounds and T-type calcium channel inhibitors containing the same” (Korea Institute of Science and Technology, priority 2007, dated 2011).

The structures appear in SMILES notation.

The target of data set [1] is T1, α1G T-type calcium channel (Homo sapiens, UniProt O43497).
T1 construct: host or cells: HEK293
Nature of the data set: Assay for % inhibiting activity against T-type calcium channel using FDSS6000 (fluo-3 calcium imaging, KCl activation). The class given is cell-based. The settings on record: 10 μM; for inhibition at 10 µM: FDSS (% inhibition), comparative compounds where R6 is a phenyl group, read-out: FDSS; for FDSS (% inhibition)/10uM: HEK293 cells stably expressing α1G T-type calcium channel and Kir2.1, compounds of the examples. As for the experimental part:
In the present invention, in order to examine an efficient inhibitor against the T-type calcium channel, a primary assay for T-type calcium channel inhibiting activity was conducted by a high-efficient assay using FDSS6000, wherein mammal HEK293 cell lines (originated from human kidney carcinoma cells) that specifically express α1G of the T-type calcium channel was used for primary assay. Through the primary assay, compounds that show meaningful inhibition effects were selected. The selected compounds were used in a second assay for T-type calcium channel inhibiting activity using an electrophysiological whole cell patch clamp method, wherein mammal HEK293 cell lines (originated from human kidney carcinoma cells) that specifically express α1G of the T-type calcium channel was used for the second assay. Mibefradil, which had been developed as a T-type calcium channel inhibitor, was used as a reference.
At 12-24 hours before being used for this assay, cells of HEK293 cell line (α1G cell line: KCTC 10519BP, Korean Collection for Type Cultures), which stably express α1G T-type calcium channel and Kir2.1, were sub-cultured in a poly-L-lysine treated 96-well plate with the density of 4×10^4 per well using a 96-well cell dispenser (Titertek). On the day of assay, the 96-well plate to which the cells were attached was washed three times with HEPES buffer solution (150 mM of NaCl, 5 mM of KCl, 1 mM of MgCl2, 2 mM of CaCl2, 10 mM of HEPES, 10 mM of glucose; pH 7.4) using a 96-well plate automatic washing device (Bio Tek), then reacted with HEPES buffer solution containing 5 μM fluo-3/AM and 0.001% Pluronic F-127 at room temperature for 1 hour, to label with fluorescent dye, and then further washed two times with HEPES buffer solution.
Thereafter, at 10 minutes before the measurement using device FDSS6000, washing with HEPES buffer solution containing 10 mM CaCl2 was conducted once more, and the final volume was adjusted to 81 μl. Besides the above 96-well plate containing the cells, two additional drug 96-well plates were provided, wherein the 96-well plates contained an inhibiting drug and KCl (final concentration: 75 mM) for activating the T-type calcium channel, respectively. Since most of cell-based HTS devices are equipped with a liquid application system for injection of drug, but have no liquid sucking system, the inhibiting drug to be tested and KCl were respectively provided at a five-times higher concentration in 10 mM CaCl2 HEPES buffer solution at the amount of 27 μl, diluted by five-times at the final cell plate volume of 135 μl, and then used in this test. The concrete method of measurement using FDSS6000 was as follows. After recording the reference value of 20 seconds, the change of intracellular Ca^2+ concentration that was induced by treatment of the inhibiting drug to be tested for 75 seconds followed by administration of KCl was measured, wherein the percentage (%) inhibition effect of the test drug, through estimating the area of ratio value of 340/380 in the control without treatment of the test drug, was 100%. As a reference drug, 10 μM mibefradil was used.
For accurate calcium imaging, the light source of 4 xenon lamps in FDSS6000 were radiated to selectively expose the cells to the excitation wavelength (340 nm and 380 nm) by a computer-controlled filter wheel. Data was obtained at intervals of 1.23 seconds. The emitter fluorescence light inflowed through a long-pass filter was obtained as an average 340/380 ratio value for each well in the 96-wells by using a CCD camera and a digital fluorescence analyzer in FDSS6000. All image data and analyses were obtained by using a FDSS6000-exclusive program from Hamamatsu Photonics.
The obtained results are shown in Table 2 (the results from the compounds according to the examples of the present invention) and Table 3 (the results from the compounds according to the comparative example where R6 is a phenyl group) [FDSS (% inhibition) 10 μM].

T1 sequence (O43497 whole entry): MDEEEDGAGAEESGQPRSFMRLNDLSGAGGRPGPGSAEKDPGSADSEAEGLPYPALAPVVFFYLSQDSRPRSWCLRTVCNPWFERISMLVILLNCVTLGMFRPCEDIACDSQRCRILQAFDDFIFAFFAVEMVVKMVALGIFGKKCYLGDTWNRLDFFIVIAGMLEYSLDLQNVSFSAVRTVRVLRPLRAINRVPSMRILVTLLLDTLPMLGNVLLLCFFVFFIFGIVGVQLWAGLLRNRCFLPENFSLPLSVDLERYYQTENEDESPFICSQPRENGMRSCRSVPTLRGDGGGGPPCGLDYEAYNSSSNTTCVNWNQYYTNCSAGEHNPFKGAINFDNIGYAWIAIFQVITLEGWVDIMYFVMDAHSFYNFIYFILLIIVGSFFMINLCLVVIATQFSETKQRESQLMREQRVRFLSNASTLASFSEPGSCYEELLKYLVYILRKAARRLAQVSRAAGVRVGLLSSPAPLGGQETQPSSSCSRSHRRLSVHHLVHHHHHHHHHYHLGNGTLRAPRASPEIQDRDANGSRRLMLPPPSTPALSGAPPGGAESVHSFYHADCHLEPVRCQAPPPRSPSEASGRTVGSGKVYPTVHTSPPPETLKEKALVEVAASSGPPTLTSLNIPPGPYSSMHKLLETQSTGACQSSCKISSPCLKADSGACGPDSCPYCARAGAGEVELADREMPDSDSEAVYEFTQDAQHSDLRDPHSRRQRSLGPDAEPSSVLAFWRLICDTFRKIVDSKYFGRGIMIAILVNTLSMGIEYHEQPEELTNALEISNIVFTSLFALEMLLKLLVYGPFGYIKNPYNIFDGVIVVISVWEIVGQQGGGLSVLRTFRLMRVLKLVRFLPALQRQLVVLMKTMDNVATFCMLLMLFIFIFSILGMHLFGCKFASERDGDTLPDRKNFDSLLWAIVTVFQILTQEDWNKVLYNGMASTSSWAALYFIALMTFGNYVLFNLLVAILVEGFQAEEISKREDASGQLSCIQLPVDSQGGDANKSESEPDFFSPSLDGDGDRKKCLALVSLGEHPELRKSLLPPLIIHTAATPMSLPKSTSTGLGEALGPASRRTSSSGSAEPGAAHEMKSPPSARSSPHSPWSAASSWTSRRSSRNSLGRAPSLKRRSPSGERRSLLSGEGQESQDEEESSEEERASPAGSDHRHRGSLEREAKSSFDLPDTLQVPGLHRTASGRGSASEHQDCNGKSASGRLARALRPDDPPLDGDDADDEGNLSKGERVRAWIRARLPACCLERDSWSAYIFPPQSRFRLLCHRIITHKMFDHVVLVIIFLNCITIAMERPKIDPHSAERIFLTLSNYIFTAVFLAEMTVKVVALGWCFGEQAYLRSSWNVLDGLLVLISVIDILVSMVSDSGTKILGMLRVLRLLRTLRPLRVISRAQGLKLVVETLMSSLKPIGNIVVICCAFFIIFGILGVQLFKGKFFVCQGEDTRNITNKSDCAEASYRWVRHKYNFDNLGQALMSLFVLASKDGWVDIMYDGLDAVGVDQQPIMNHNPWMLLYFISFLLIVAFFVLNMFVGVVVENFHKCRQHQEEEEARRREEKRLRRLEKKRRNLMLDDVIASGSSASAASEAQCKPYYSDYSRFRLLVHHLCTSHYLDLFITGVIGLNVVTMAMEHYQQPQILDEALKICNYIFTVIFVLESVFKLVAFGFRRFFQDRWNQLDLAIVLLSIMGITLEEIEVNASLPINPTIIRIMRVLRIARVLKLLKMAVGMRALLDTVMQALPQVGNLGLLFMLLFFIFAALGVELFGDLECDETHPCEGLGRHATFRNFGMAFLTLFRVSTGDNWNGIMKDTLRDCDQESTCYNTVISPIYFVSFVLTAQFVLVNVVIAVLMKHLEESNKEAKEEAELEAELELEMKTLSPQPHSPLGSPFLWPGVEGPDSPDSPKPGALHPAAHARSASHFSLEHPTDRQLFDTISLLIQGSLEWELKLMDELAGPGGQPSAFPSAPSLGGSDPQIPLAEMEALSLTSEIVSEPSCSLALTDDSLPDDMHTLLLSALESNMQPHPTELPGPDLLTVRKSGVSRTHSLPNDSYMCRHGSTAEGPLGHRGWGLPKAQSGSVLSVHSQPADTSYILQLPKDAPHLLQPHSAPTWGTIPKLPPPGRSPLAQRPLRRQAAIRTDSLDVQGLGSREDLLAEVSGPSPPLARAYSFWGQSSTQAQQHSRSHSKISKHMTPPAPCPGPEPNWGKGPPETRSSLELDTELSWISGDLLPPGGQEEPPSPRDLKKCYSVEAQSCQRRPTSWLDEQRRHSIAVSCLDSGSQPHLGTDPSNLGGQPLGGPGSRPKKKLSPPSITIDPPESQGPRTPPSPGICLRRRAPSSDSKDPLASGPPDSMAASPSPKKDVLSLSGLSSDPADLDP

For the molecule `COc1ccc(N=C2SCC(CC(=O)Nc3ccc(Cl)cc3)N2C)cc1.Cl` (stereo not shown) [KHG21648, [2-(4-methoxyphenylimino)-3-methyl-1,3-thiazolidine-4-yl]-N-(4-chlorophenyl)-acetamide hydrochloride], the melting point (usually the temperature of the solid-liquid transition) is 250 to 253 °C. Besides, the inhibition at 10 µM in data set [1] is 26.2%.
For `COc1cccc(N=C2SCC(CC(=O)Nc3ccc(Cl)cc3)N2C)c1.Cl` (stereo not shown) [KHG21649, [2-(3-methoxyphenylimino)-3-methyl-1,3-thiazolidine-4-yl]-N-(4-chlorophenyl)-acetamide hydrochloride], the melting point was 228 to 231 °C. The inhibition at 10 µM in data set [1] was determined as 27.8%.
Turning to `CN1C(=Nc2ccc(Oc3ccccc3)cc2)SCC1CC(=O)Nc1ccc(Cl)cc1.Cl` (stereo not shown) [KHG21650, [2-(4-phenoxyphenylimino)-3-methyl-1,3-thiazolidine-4-yl]-N-(4-chlorophenyl)-acetamide hydrochloride], the melting point lay within 238 to 242 °C. In addition, the inhibition at 10 µM in data set [1] amounted to 2.59%.
`CN1C(=Nc2ccc(Cl)cc2)SCC1CC(=O)Nc1ccc(Cl)cc1.Cl` (stereo not shown) [KHG21652, [2-(4-chlorophenylimino)-3-methyl-1,3-thiazolidine-4-yl]-N-(4-chlorophenyl)-acetamide hydrochloride] came in with a melting point of 239 to 242 °C. In addition, in data set [1], the inhibition at 10 µM is -7.7%.
Take `CC(C)Oc1cccc(N=C2SCC(CC(=O)Nc3ccc(Cl)cc3)N2C)c1.Cl` (stereo not shown) [KHG21653, [2-(3-isopropoxyphenylimino)-3-methyl-1,3-thiazolidine-4-yl]-N-(4-chlorophenyl)-acetamide hydrochloride]: the melting point fell in the range of 201 to 203 °C. Also, the inhibition at 10 µM in data set [1] was -2.17%.
The matching figures for `CCCCc1ccc(N=C2SCC(CC(=O)Nc3ccc(Cl)cc3)N2C)cc1.Cl` (stereo not shown) [KHG21654, [2-(4-n-butylphenylimino)-3-methyl-1,3-thiazolidine-4-yl]-N-(4-chlorophenyl)-acetamide hydrochloride]: 239 to 241 °C and -1.13%.
In turn, `CN1C(=Nc2cccc([N+](=O)[O-])c2)SCC1CC(=O)Nc1ccc(Cl)cc1.Cl` (stereo not shown) [KHG21655, [2-(3-nitrophenylimino)-3-methyl-1,3-thiazolidine-4-yl]-N-(4-chlorophenyl)-acetamide hydrochloride] gave a melting point of 228 °C. The inhibition at 10 µM in data set [1] stood at 4.68%.
`CC(C)c1ccc(NC(=O)CC2CSC(=Nc3ccc(C(F)(F)F)cc3)N2C)cc1.Cl` (stereo not shown) [KHG21943, [2-(4-trifluoromethylphenylimino)-3-methyl-1,3-thiazolidine-4-yl]-N-(4-isopropylphenyl)-acetamide hydrochloride] returned a melting point of 238 to 242.8 °C. Besides, the inhibition at 10 µM in data set [1] is -2.56%.
`CC(C)Oc1cc(N=C2SCC(CC(=O)Nc3ccc(C(C)C)cc3)N2C)c(F)cc1Cl.Cl` (stereo not shown) [KHG21944, [2-(4-chloro-5-isopropoxy-2-fluorophenylimino)-3-methyl-1,3-thiazolidine-4-yl]-N-(4-isopropylphenyl)-acetamide hydrochloride]: the melting point is 190 to 194 °C. Also, the inhibition at 10 µM in data set [1] was found to be 5.89%.
Take `CC(C)c1ccc(NC(=O)CC2CSC(=Nc3ccc(C#N)cc3)N2C)cc1.Cl` (stereo not shown) [KHG21945, [2-(4-cyanophenylimino)-3-methyl-1,3-thiazolidine-4-yl]-N-(4-isopropylphenyl)-acetamide hydrochloride]: the melting point lay within 234 to 235 °C. The inhibition at 10 µM in data set [1] turned out to be 7.71%.
For `CC(C)c1ccc(NC(=O)CC2CSC(=Nc3ccc(F)c(Cl)c3)N2C)cc1.Cl` (stereo not shown) [KHG21947, [2-(3-chloro-4-fluorophenylimino)-3-methyl-1,3-thiazolidine-4-yl]-N-(4-isopropylphenyl)-acetamide hydrochloride], in that order: 239 to 241 °C and 23.9%.
The molecule `CC(C)c1ccc(NC(=O)CC2CSC(=Nc3cccc(Br)c3)N2C)cc1.Cl` (stereo not shown) [KHG21949, [2-(3-bromophenylimino)-3-methyl-1,3-thiazolidine-4-yl]-N-(4-isopropylphenyl)-acetamide hydrochloride] came in with a melting point of 198 to 201 °C. Besides, the inhibition at 10 µM in data set [1] was found to be 5.41%.
The molecule `CN1C(=Nc2ccc(Cl)cc2)SCC1CC(=O)Nc1ccc(Cl)cc1F.Cl` (stereo not shown) [KHG23064, [2-(4-chlorophenylimino)-3-methyl-1,3-thiazolidine-4-yl]-N-(4-chloro-2-fluorophenyl)-acetamide hydrochloride] registered a melting point of 239 to 240 °C. The inhibition at 10 µM in data set [1] was 7.37%.
For the molecule `CN1C(=Nc2ccc(Br)cc2)SCC1CC(=O)Nc1ccc(Cl)cc1F.Cl` (stereo not shown) [KHG23065, [2-(4-bromophenylimino)-3-methyl-1,3-thiazolidine-4-yl]-N-(4-chloro-2-fluorophenyl)-acetamide hydrochloride], the melting point was 239 to 240 °C. The inhibition at 10 µM in data set [1] came out at 3.57%.
For `CCCCc1ccc(N=C2SCC(CC(=O)Nc3ccc(Cl)cc3F)N2C)cc1.Cl` (stereo not shown) [KHG23066, [2-(4-n-butylphenylimino)-3-methyl-1,3-thiazolidine-4-yl]-N-(4-chloro-2-fluorophenyl)-acetamide hydrochloride], in that order: 223 to 224 °C and 1.3%.
For `CN1C(=Nc2ccc(C#N)cc2)SCC1CC(=O)Nc1ccc(Cl)cc1F.Cl` (stereo not shown) [KHG23067, [2-(4-cyanophenylimino)-3-methyl-1,3-thiazolidine-4-yl]-N-(4-chloro-2-fluorophenyl)-acetamide hydrochloride], in that order: 136 to 137 °C and -2.73%.
The matching figures for `CN1C(=Nc2ccc(C(F)(F)F)cc2)SCC1CC(=O)Nc1ccc(Cl)cc1F.Cl` (stereo not shown) [KHG23068, [2-(4-trifluoromethylphenylimino)-3-methyl-1,3-thiazolidine-4-yl]-N-(4-chloro-2-fluorophenyl)-acetamide hydrochloride]: 222 to 223 °C and 5.76%.
For `Cc1ccc(N=C2SCC(CC(=O)Nc3ccc(Cl)cc3F)N2C)cc1.Cl` (stereo not shown) [KHG23069, [2-(4-methylphenylimino)-3-methyl-1,3-thiazolidine-4-yl]-N-(4-chloro-2-fluorophenyl)-acetamide hydrochloride], the melting point lay in the range of 243 to 245 °C. Moreover, the inhibition at 10 µM in data set [1] is 4.33%.
The matching figures for `CN1C(=Nc2ccc(OC(F)(F)F)cc2)SCC1CC(=O)Nc1ccc(Cl)cc1F.Cl` (stereo not shown) [KHG23070, [2-(4-trifluoromethoxyphenylimino)-3-methyl-1,3-thiazolidine-4-yl]-N-(4-chloro-2-fluorophenyl)-acetamide hydrochloride]: 236 to 237 °C and 7.44%.
Regarding `CCCN1C(=NC23CC4CC(CC(C4)C2)C3)SCC1CC(=O)Nc1ccc2c(c1)OCO2.Cl` (stereo not shown) [KHG24837, [2-(1-adamantylimino)-3-n-propyl-1,3-thiazolidine-4-yl]-N-(3,4-dioxymethylenephenyl)-acetamide hydrochloride], the “FDSS (% inhibition)/10uM” value in data set [1] amounted to 68.43%.
On to `CC(C)N1C(=NC23CC4CC(CC(C4)C2)C3)SCC1CC(=O)Nc1ccc2c(c1)OCO2.Cl` (stereo not shown) [KHG24838, [2-(1-adamantylimino)-3-isopropyl-1,3-thiazolidine-4-yl]-N-(3,4-dioxymethylenephenyl)-acetamide hydrochloride], for which, in data set [1], the “FDSS (% inhibition)/10uM” value was 53.33%.
